Test results as given in patent US8507464B2, “Phosphoramidate alkylator prodrugs” (Threshold Pharmaceuticals, Inc., priority 2005, dated 2013).
Like-named read-outs stand apart in the source and are kept apart here.

What was measured:
[1] = system: NCI-H460 cells; assay: Antiproliferation assay (Alamar Blue), anoxia vs air
[2] = type: physicochemical; settings: glassy carbon, Ag/AgCl reference; for Reduction Potentials, 100 mV/sec: scan rate 100 mV/sec; for Reduction Potentials, 10,000 mV/sec: scan rate 10,000 mV/sec
[3] = system: NCI-H460 cells; assay: Antiproliferation assay - oxygen dependence; type: cell-based, human
From the text: . […] The calculated IC50 values (μM) are tabulated in Table Y1 (H460 cells) or Table Y2 (HT29 cells) below.

[4] = system: MES-SA cells; assay: Antiproliferation assay (Alamar Blue), anoxia vs air; settings: Homo sapiens, 2 h
[5] = system: H460 lung carcinoma spheroids; assay: Spheroid model, clonogenic survival; settings: Homo sapiens, NCI-H460, 2 h, read-out: IC90 H460 Spheroid 10% O2
[6] = system: H460 cell line; assay: Anti-proliferation assay, hypoxia vs normoxia (Table 1A); settings: for IC50: Homo sapiens; for HCR P: ratio of IC50 in normoxia and hypoxia
[7] = system: HT29 cells; assay: Antiproliferation assay (Alamar Blue), anoxia vs air; settings: Homo sapiens, HT-29, 2 h
[8] = system: NCI-H460 cells; assay: Clonogenic assay - oxygen dependence; settings: Homo sapiens
[9] = system: mouse (MLM) liver microsomal proteins; type: in vitro ADME; settings: Table 2B
[10] = Plasma stability (Table 2B)
[11] = in vivo
[12] = system: HT29; assay: Anti-proliferation assay, hypoxia vs normoxia (Table 1B); settings: for IC50: Homo sapiens
[13] = in vivo; settings: CD-1, mouse
[14] = system: H460 cells exposed as monolayers; assay: Clonogenic survival of monolayer cells (Example 35); settings: Homo sapiens, NCI-H460, 2 h
[15] = Homo sapiens, NCI-H460, 2 h, read-out: IC50 H460 Air, air, 2 h exposure
[16] = Homo sapiens, NCI-H460, 2 h, read-out: IC50 H460 Anoxia, anoxia, 2 h exposure
[17] = Homo sapiens, NCI-H460, read-out: IC50 in H460 cells, 0.6% O2
[18] = Homo sapiens, NCI-H460, read-out: IC50 in H460 cells, Air
[19] = Homo sapiens, NCI-H460, read-out: IC50 in H460 cells, N2
[20] = NCI-H460, read-out: Hypoxia P (proliferation IC50)
[21] = NCI-H460, read-out: Normoxia P (proliferation IC50)
[22] = NCI-H460, read-out: IC90 H460 0.6% O2
[23] = NCI-H460, read-out: IC90 H460 Air
[24] = NCI-H460, read-out: IC90 H460 N2
[25] = Homo sapiens, NCI-H460, read-out: IC50 in H460 cells, 1% O2
[26] = Homo sapiens, NCI-H460; read-out: IC50 in H460 cells, Air
[27] = Homo sapiens, NCI-H460; read-out: IC50 in H460 cells, N2
[28] = CD-1, Balb/c for Compound 1, mouse, iv
[29] = Homo sapiens, NCI-H460, read-out: IC50 in H460 cells, 0.1% O2
[30] = Homo sapiens, NCI-H460, read-out: IC50 in H460 cells, 10% O2

With Cn1c(COP2(=O)N(CCBr)CCN2CCBr)cnc1[N+](=O)[O-] [Compound 108] as the compound, how does the IC50 [1, 15] read?
The IC50 was > 100 µM.

And the IC50 [1, 16]?
Its IC50 is 1.1 µM.

What about the “Reduction Potentials, 100 mV/sec” value [2] of the same compound?
Its value is −614 mV.

What about the “Reduction Potentials, 10,000 mV/sec” value [2] of the same compound?
The value was −593 mV.

What about the IC50 [3, 17] of the same compound?
The IC50 was > 100 µM.

What about the IC50 [3, 18] of the same compound?
The IC50 was > 100 µM.

What about the IC50 [3, 19] of the same compound?
The IC50 was 1 µM.

For Cn1c(COP2(=O)N(CCBr)CCCN2CCBr)cnc1[N+](=O)[O-] [Compound 35], which IC50 ([4]; read-out: IC50 MES-SA Air) is on record?
The IC50 was 100 µM.

What about the IC50 ([4]; read-out: IC50 MES-SA Anoxia) of the same compound?
The IC50 was 1 µM.

What about the IC90 [5] of the same compound?
The IC90 was 22 µM.

What about the IC50 [1, 15] of the same compound?
The IC50 was 50 µM.

What about the IC50 [1, 16] of the same compound?
The IC50 was 0.075 µM.

And the IC50 ([1]; read-out: IC50 H460 Air, air, 2 h exposure)?
Its IC50 is 55 µM.

What about the IC50 [6, 20] of the same compound?
Its IC50 is 0.075 µM.

What about the IC50 [6, 21] of the same compound?
The IC50 was 50 µM.

And the “HCR P” value [6]?
The value was 625.

What about the IC50 ([7]; read-out: IC50 HT29 Air) of the same compound?
The IC50 was > 100 µM.

What about the IC50 ([7]; read-out: IC50 HT29 Anoxia) of the same compound?
Its IC50 is 1.8 µM.

And the IC90 [8, 22]?
Its IC90 is 3 µM.

And the IC90 [8, 23]?
The IC90 was 30 µM.

What about the IC90 [8, 24] of the same compound?
Its IC90 is 0.5 µM.

And the IC50 ([3]; Homo sapiens, NCI-H460, read-out: IC50 in H460 cells, 0.3% O2)?
Its IC50 is 6 µM.

And the IC50 [3, 17]?
Its IC50 is 5 µM.

And the IC50 [3, 25]?
Its IC50 is 40 µM.

What about the IC50 [3, 26] of the same compound?
The IC50 was 50 µM.

What about the IC50 [3, 27] of the same compound?
The IC50 was 0.05 µM.

And the “Metabolic stability (MLM) (% at 30 min)” value [9]?
Its value is 56%.

What about the “Plasma stability (% at 30 min)” value [10] of the same compound?
The value was 85%.

Which clearance ([11]; CD-1 (Compounds 5, 23, 36), Balb/c (Compound 1), mouse, iv) does the source give for CN(CCCl)P(=O)(OCc1cnc([N+](=O)[O-])n1C)N(C)CCCl [Compound 5] here?
The clearance was 11.1 L/h/kg.

And the Cmax ([11]; CD-1, Balb/c for Compound 1, mouse, ip)?
Its Cmax is 3 µg/mL.

And the AUC [11, 28]?
The AUC was 4.5 µg·h/mL.

And the Cmax [11, 28]?
The Cmax was 16.9 µg/mL.

And the Vd [11, 28]?
Its Vd is 1.25 L/kg.

What about the half-life ([11]; CD-1, Balb/c for Compound 1, mouse, iv, t ½, intravenous administration in mice, mice) of the same compound?
Its half-life is 4.8 min.

What about the AUC ([11]; CD-1, mouse, ip) of the same compound?
The AUC was 1 µg·h/mL.

And the IC50 [1, 15]?
The IC50 was 6 µM.

What about the IC50 [1, 16] of the same compound?
The IC50 was 0.05 µM.

What about the IC50 [6, 20] of the same compound?
The IC50 was 4.5 µM.

And the IC50 [6, 21]?
The IC50 was 3.5 µM.

What about the “HCR P” value [6] of the same compound?
The value was 1.

What about the IC50 ([7]; read-out: IC50 HT29 Air) of the same compound?
Its IC50 is > 100 µM.

What about the IC50 ([7]; read-out: IC50 HT29 Anoxia) of the same compound?
Its IC50 is 10 µM.

And the “Reduction Potentials, 100 mV/sec” value [2]?
Its value is −606 mV.

And the “Reduction Potentials, 10,000 mV/sec” value [2]?
The value was −634 mV.

And the “HT29 HCR P” value [12]?
Its value is >10.

What about the IC50 ([12]; HT-29, read-out: HT29 P H (proliferation IC50, hypoxia)) of the same compound?
Its IC50 is 10 µM.

And the IC50 ([12]; HT-29, read-out: HT29 P N (proliferation IC50, normoxic))?
The IC50 was > 100 µM.

What about the AUC ([13]; ip, 50 mg/kg) of the same compound?
The AUC was 57.4 µg·h/mL.

What about the Cmax ([13]; ip, 50 mg/kg) of the same compound?
Its Cmax is 3 µg/mL.

And the Tmax ([13]; ip, 50 mg/kg)?
The Tmax was 5 min.

What about the half-life ([13]; ip, 50 mg/kg) of the same compound?
The half-life was 2.56 min.

What about the AUC ([13]; iv, 50 mg/kg) of the same compound?
Its AUC is 270 µg·h/mL.

And the Cmax ([13]; iv, 50 mg/kg)?
The Cmax was 16.9 µg/mL.

What about the Tmax ([13]; iv, 50 mg/kg) of the same compound?
Its Tmax is 5 min.

And the half-life ([13]; iv, 50 mg/kg)?
The half-life was 4.67 min.

And the IC50 [3, 29]?
The IC50 was 1 µM.

What about the IC50 [3, 17] of the same compound?
Its IC50 is 1 µM.

And the IC50 [3, 25]?
Its IC50 is 10 µM.

What about the IC50 [3, 30] of the same compound?
Its IC50 is 5 µM.

And the IC50 [3, 26]?
The IC50 was 40 µM.

What about the IC50 [3, 27] of the same compound?
The IC50 was 0.03 µM.

What about the “Metabolic stability (MLM) (% at 30 min)” value [9] of the same compound?
The value was 5%.

What about the “Metabolic stability (MLM), value in parentheses” value ([9]; parentheses not explained) of the same compound?
Its value is “(20) %”.

And the “Plasma stability (% at 30 min)” value [10]?
Its value is 100%.

What about the “Plasma stability, value in parentheses” value ([10]; parentheses not explained) of the same compound?
Its value is “(85) %”.

Which IC50 [1, 15] does the source give for C[C@H](CCl)NP(=O)(N[C@H](C)CCl)OCc1cnc([N+](=O)[O-])n1C [Compound 37] here?
The IC50 was > 100 µM.

And the IC50 [1, 16]?
The IC50 was 0.36 µM.

And the IC90 [8, 22]?
The IC90 was 5 µM.

And the IC90 [8, 23]?
The IC90 was 90 µM.

What about the IC90 [8, 24] of the same compound?
Its IC90 is 0.2 µM.

What about the AUC ([13]; ip, 20 mg/kg) of the same compound?
Its AUC is 196 µg·h/mL.

What about the Cmax ([13]; ip, 20 mg/kg) of the same compound?
Its Cmax is 12.6 µg/mL.

What about the Tmax ([13]; ip, 20 mg/kg) of the same compound?
Its Tmax is 2 min.

And the half-life ([13]; ip, 20 mg/kg)?
Its half-life is 23.2 min.

What about the AUC ([13]; iv, 20 mg/kg) of the same compound?
Its AUC is 172 µg·h/mL.

And the Cmax ([13]; iv, 20 mg/kg)?
The Cmax was 15 µg/mL.

What about the Tmax ([13]; iv, 20 mg/kg) of the same compound?
Its Tmax is 2 min.

And the half-life ([13]; iv, 20 mg/kg)?
Its half-life is 9 min.

What about the IC50 [3, 17] of the same compound?
Its IC50 is 25 µM.

And the IC50 [3, 26]?
Its IC50 is > 100 µM.

What about the IC50 [3, 27] of the same compound?
The IC50 was 0.5 µM.

With O=[N+]([O-])c1ccc(COP(=O)(NCCCl)NCCCl)s1 [Compound 26] as the compound, how does the IC50 [1, 15] read?
The IC50 was 35 µM.

And the IC50 [1, 16]?
The IC50 was 0.1 µM.

And the IC50 [6, 20]?
Its IC50 is 0.1 µM.

And the IC50 [6, 21]?
Its IC50 is 35 µM.

And the “HCR P” value [6]?
The value was 350.

And the IC50 [3, 29]?
Its IC50 is 3 µM.

And the IC50 [3, 17]?
Its IC50 is 6 µM.

And the IC50 [3, 25]?
The IC50 was 5 µM.

And the IC50 [3, 30]?
The IC50 was 10 µM.

What about the IC50 [3, 18] of the same compound?
The IC50 was 40 µM.

And the IC50 [3, 19]?
Its IC50 is 0.3 µM.

And the “Metabolic stability (MLM) (% at 30 min)” value [9]?
The value was 56%.

What about the “Plasma stability (% at 30 min)” value [10] of the same compound?
The value was 85%.

For Nc1n[n+]([O-])c2ccccc2[n+]1[O-] [Tirapazamine, reference compound], which IC90 [5] is on record?
Its IC90 is > 200 µM.

What about the IC90 ([14]; read-out: IC90 H460 Monolayer 0.6% O2) of the same compound?
The IC90 was 27 µM.

What about the IC90 ([14]; read-out: IC90 H460 Monolayer Air) of the same compound?
Its IC90 is > 100 µM.

And the IC90 ([14]; read-out: IC90 H460 Monolayer N2)?
Its IC90 is 14 µM.
